Measurements taken from US10597388B2, “Pyridazinone herbicides” (FMC CORPORATION, priority 2014, dated 2020).

How the values were obtained:
Assay in all cases: Test C greenhouse herbicide test, pre- and postemergence
Type in all cases: in vivo
corn (Zea mays) = system: corn (Zea mays)
Excerpt: (§1) Seeds of plant species selected from blackgrass (Alopecurus myosuroides), ryegrass, Italian (Italian ryegrass, Lolium multiflorum), wheat (winter wheat, Triticum aestivum), galium (catchweed bedstraw, Galium aparine), corn (Zea mays), large crabgrass, large (large crabgrass, Digitaria sanguinalis), foxtail, giant (giant foxtail, Setaria faberii), johnsongrass (Sorghum halepense), lambsquarters (Chenopodium album), morningglory (Ipomoea coccinea), nutsedge, yellow (yellow nutsedge, Cyperus esculentus), pigweed (Amaranthus retroflexus), ragweed (common ragweed, Ambrosia elatior), soybean (Glycine max), barnyardgrass (Echinochloa crus-galli), oilseed rape (Brassica napus), waterhemp (common waterhemp, Amaranthus rudis), and velvetleaf (Abutilon theophrasti) were planted into a blend of loam soil and sand and treated preemergence with test chemicals formulated in a non-phytotoxic solvent mixture which included a surfactant.
(§2) At the same time, plants selected from these crop and weed species and also chickweed (common chickweed, Stellaria media), kochia (Kochia scoparia), and oat, wild (wild oat, Avena fatua), were planted in pots containing Redi-Earth® planting medium (Scotts Company, 14111 Scottslawn Road, Marysville, Ohio 43041) comprising spaghnum peat moss, vermiculite, wetting agent and starter nutrients and treated with postemergence applications of test chemicals formulated in the same manner. Plants ranged in height from 2 to 18 cm (1- to 4-leaf stage) for postemergence treatments. Treated plants and controls were maintained in a greenhouse for 13 to 15 d, after which time all species were compared to controls and visually evaluated. Plant response ratings, summarized in Table C, are based on a scale of 0 to 100 where 0 is no effect and 100 is complete control. A dash (-) response means no test result.

[1] = system: morningglory (Ipomoea coccinea)
Excerpt: as §1, §2

[2] = system: ragweed (common ragweed, Ambrosia elatior)
Excerpt: as §1, §2

[3] = system: ryegrass, Italian (Italian ryegrass, Lolium multiflorum)
Excerpt: as §1, §2

[4] = system: blackgrass (Alopecurus myosuroides)
Excerpt: as §1, §2

[5] = system: lambsquarters (Chenopodium album)
Excerpt: as §1, §2

[6] = system: crabgrass, large (large crabgrass, Digitaria sanguinalis)
Excerpt: as §1, §2

[7] = system: foxtail, giant (giant foxtail, Setaria faberii)
Excerpt: as §1, §2

[8] = system: barnyardgrass (Echinochloa crus-galli)
Excerpt: as §1, §2

[9] = system: galium (catchweed bedstraw, Galium aparine)
Excerpt: as §1, §2

[10] = system: oilseed rape (Brassica napus)
Excerpt: as §1, §2

[11] = system: johnsongrass (Sorghum halepense)
Excerpt: as §1, §2

[12] = system: velvetleaf (Abutilon theophrasti)
Excerpt: as §1, §2

[13] = system: nutsedge, yellow (yellow nutsedge, Cyperus esculentus)
Excerpt: as §1, §2

[14] = system: waterhemp (common waterhemp, Amaranthus rudis)
Excerpt: as §1, §2

[15] = system: pigweed (Amaranthus retroflexus)
Excerpt: as §1, §2

[16] = Postemergence, 31 g ai/ha, 0 to 100 scale (0 no effect, 100 complete control)
[17] = Postemergence, 125 g ai/ha, scale 0 to 100, 0 is no effect, 100 is complete control
[18] = Postemergence, 250 g ai/ha, scale 0 to 100, 0 no effect, 100 complete control, 13 to 15 d
[19] = Preemergence, 31 g ai/ha, scale 0 to 100, 0 is no effect, 100 is complete control
[20] = Preemergence, 62 g ai/ha, scale 0 to 100, 0 is no effect, 100 is complete control
[21] = Preemergence, 125 g ai/ha, scale 0 to 100, 0 is no effect, 100 is complete control
[22] = Preemergence, 250 g ai/ha, scale 0 to 100 (0 no effect, 100 complete control)
[23] = postemergence, 62 g ai/ha, scale 0 to 100, 0 no effect, 100 complete control

CCC(=O)Oc1c(C)nn(C)c(=O)c1-c1c(C)sc2ccc(C)cc12 [Compound 42]
15: Crabgrass, Large plant response rating [6, 23]
10: Plant response rating, Corn (corn (Zea mays); [21]) | Crabgrass, Large plant response rating [6, 16] | Plant response rating, Oilseed Rape [10, 17]
75: Morningglory plant response rating [1, 16] | Plant response rating, Foxtail, Giant [7, 19] | Nutsedge, Yellow plant response rating [13, 23] | Waterhemp plant response rating [14, 16]
0: Corn plant response rating (corn (Zea mays); [16]) | Plant response rating, Corn (corn (Zea mays); [19]) | Plant response rating, Corn (corn (Zea mays); [20]) | Plant response rating, Barnyardgrass [8, 19] | Oilseed Rape plant response rating [10, 16] | Plant response rating, Oilseed Rape [10, 18] | Plant response rating, Oilseed Rape [10, 19] | Plant response rating, Oilseed Rape [10, 20] | Plant response rating, Johnsongrass [11, 19] | Plant response rating, Johnsongrass [11, 20]
80: Plant response rating, Lambsquarters [5, 20] | Plant response rating, Crabgrass, Large [6, 21] | Plant response rating, Foxtail, Giant [7, 18] | Plant response rating, Foxtail, Giant [7, 20] | Barnyardgrass plant response rating [8, 22] | Nutsedge, Yellow plant response rating [13, 22] | Plant response rating, Waterhemp [14, 19]
20: Plant response rating, Crabgrass, Large [6, 17] | Plant response rating, Crabgrass, Large [6, 18] | Barnyardgrass plant response rating [8, 16] | Oilseed Rape plant response rating [10, 22]
98: Plant response rating, Morningglory [1, 20] | Plant response rating, Morningglory [1, 21] | Morningglory plant response rating [1, 22] | Plant response rating, Ragweed [2, 17] | Plant response rating, Lambsquarters [5, 18] | Galium plant response rating [9, 22] | Velvetleaf plant response rating [12, 22] | Plant response rating, Waterhemp [14, 17] | Plant response rating, Waterhemp [14, 20] | Plant response rating, Pigweed [15, 17] | Plant response rating, Pigweed [15, 18]
85: Plant response rating, Morningglory [1, 19] | Ragweed plant response rating [2, 23] | Plant response rating, Ryegrass, Italian [3, 19] | Plant response rating, Blackgrass [4, 20] | Lambsquarters plant response rating [5, 16] | Plant response rating, Lambsquarters [5, 19] | Plant response rating, Lambsquarters [5, 21] | Crabgrass, Large plant response rating [6, 22] | Plant response rating, Velvetleaf [12, 17] | Plant response rating, Velvetleaf [12, 19] | Velvetleaf plant response rating [12, 23] | Waterhemp plant response rating [14, 23] | Pigweed plant response rating [15, 16]
5: Plant response rating, Corn (corn (Zea mays); [17]) | Plant response rating, Corn (corn (Zea mays); [18]) | Corn plant response rating (corn (Zea mays); [23]) | Plant response rating, Oilseed Rape [10, 21] | Oilseed Rape plant response rating [10, 23] | Johnsongrass plant response rating [11, 16] | Plant response rating, Johnsongrass [11, 21] | Johnsongrass plant response rating [11, 23]
60: Plant response rating, Blackgrass [4, 17] | Plant response rating, Barnyardgrass [8, 21] | Plant response rating, Nutsedge, Yellow [13, 20]
70: Plant response rating, Blackgrass [4, 18] | Plant response rating, Crabgrass, Large [6, 20]
55: Plant response rating, Crabgrass, Large [6, 19] | Plant response rating, Nutsedge, Yellow [13, 19]
90: Ragweed plant response rating [2, 16] | Plant response rating, Ragweed [2, 19] | Plant response rating, Ragweed [2, 20] | Plant response rating, Ryegrass, Italian [3, 17] | Plant response rating, Ryegrass, Italian [3, 20] | Plant response rating, Ryegrass, Italian [3, 21] | Ryegrass, Italian plant response rating [3, 22] | Ryegrass, Italian plant response rating [3, 23] | Plant response rating, Blackgrass [4, 21] | Blackgrass plant response rating [4, 22] | Lambsquarters plant response rating [5, 22] | Plant response rating, Foxtail, Giant [7, 21] | Plant response rating, Galium [9, 19] | Plant response rating, Galium [9, 20] | Galium plant response rating [9, 23] | Plant response rating, Velvetleaf [12, 20] | Plant response rating, Velvetleaf [12, 21]
35: Corn plant response rating (corn (Zea mays); [22]) | Blackgrass plant response rating [4, 23] | Plant response rating, Foxtail, Giant [7, 17]
100: Plant response rating, Morningglory [1, 17] | Plant response rating, Morningglory [1, 18] | Morningglory plant response rating [1, 23] | Plant response rating, Ragweed [2, 18] | Ragweed plant response rating [2, 22] | Plant response rating, Lambsquarters [5, 17] | Foxtail, Giant plant response rating [7, 22] | Plant response rating, Galium [9, 17] | Plant response rating, Waterhemp [14, 21] | Waterhemp plant response rating [14, 22] | Plant response rating, Pigweed [15, 19] | Plant response rating, Pigweed [15, 20] | Plant response rating, Pigweed [15, 21] | Pigweed plant response rating [15, 22]
25: Foxtail, Giant plant response rating [7, 16] | Plant response rating, Johnsongrass [11, 18]
65: Ryegrass, Italian plant response rating [3, 16] | Nutsedge, Yellow plant response rating [13, 16]
30: Blackgrass plant response rating [4, 16] | Foxtail, Giant plant response rating [7, 23] | Plant response rating, Barnyardgrass [8, 17] | Plant response rating, Barnyardgrass [8, 20] | Barnyardgrass plant response rating [8, 23] | Johnsongrass plant response rating [11, 22]
95: Plant response rating, Ragweed [2, 21] | Plant response rating, Ryegrass, Italian [3, 18] | Lambsquarters plant response rating [5, 23] | Galium plant response rating [9, 16] | Plant response rating, Galium [9, 18] | Plant response rating, Galium [9, 21] | Plant response rating, Velvetleaf [12, 18] | Plant response rating, Nutsedge, Yellow [13, 18] | Plant response rating, Waterhemp [14, 18] | Pigweed plant response rating [15, 23]
40: Plant response rating, Blackgrass [4, 19] | Plant response rating, Barnyardgrass [8, 18] | Plant response rating, Nutsedge, Yellow [13, 21]
45: Velvetleaf plant response rating [12, 16]
